Holding throughout (test): inhibition of tumour cell growth, NCI panel, 48 h
The subject of assay [1] is UACC-257 melanoma.
In assay [2] the test system is NCI-H522 lung.
Assay [3] deals with EKVX NSCLC.
The subject of assay [4] is CCRF-CEM leukemia.
Assay [5] has as its system SR leukemia.
In assay [6] the test system is CAKI-1 renal.
Assay [7] concerns IGROV1 ovarian.
For assay [8], the system named is SN12C renal.
Assay [9] concerns COLO 205 colon.
In assay [10] the test system is MDA-MB-231 breast.
Assay [11] has as its system OVCAR-3 ovarian.

TGI data for one compound are collected here from PubChem BioAssay (NCI).

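Compound exposure: 48 hours, 5 concentrations, 96-well plates. Definition used: TGI = concentration required for complete inhibition of growth.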

On to `COc1ccc(CCCCl)c(C2=NCCc3ccccc32)c1`, for which the TGI in assay [1], in assay [2], in assay [3], in [4], in assay [5] and in [6] was greater than 100 µM throughout. Further, the TGI in [7] was greater than 100 µM; in assay [8], greater than 100 µM; in assay [9], 82.8 µM; in [10] it was greater than 100 µM; in assay [11] it was greater than 100 µM.
